Data set [1] concerns the target T1, recombinant human GST M1a-1a (Homo sapiens, UniProt P09488).
T1 sequence (P09488 2-218 limits assumed): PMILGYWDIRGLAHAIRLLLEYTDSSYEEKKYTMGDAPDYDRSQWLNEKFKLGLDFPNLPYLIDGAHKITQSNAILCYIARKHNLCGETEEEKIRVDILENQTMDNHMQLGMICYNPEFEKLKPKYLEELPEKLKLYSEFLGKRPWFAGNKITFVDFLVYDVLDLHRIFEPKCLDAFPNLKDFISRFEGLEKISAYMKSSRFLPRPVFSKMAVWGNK
As to the kind of experiment: Decomposition of compound by GST M1a-1a followed by HPLC. The class given is biochemical. The settings on record: for decomposition rate versus background, M1a: 37°; for IN VITRO HALF LIVES, M1a-1a: 3 μM recombinant human GST M1a-1a, compound 300 μM, disappearance by HPLC. Here is the method: (§1) The compound to be tested was dissolved in 0.2M phosphate buffer and a solution of GST was added. The final concentration was 0.3 mM test compound and 0.006 mM GST, pH 7.3 for TER 230; for TER 231 GST was 0,003 mM, pH 7.1. The solution was incubated at 37°. Decomposition was followed by HPLC. The column was J. T. Baker C18 250×4.6 mm with 5μ particles. The A buffer was 0.05M ammonium acetate, pH 5.5; 5% CH3 CN; B buffer was 70% CH3 CN in A.
(§2) The column was run with a gradient of 20%-50% B over 15 min. then to 100% B in 3 mins; then back to 20% B over 6 mins. A 10 μL sample was injected and the flow rate was 1 ml/min. Aliquots were removed and catalytic decomposition was quenched by addition of acetic acid. Overnight HPLC utilizing an autosampler were used; the rates of decomposition were calculated by measuring the rate of disappearance of the peak versus an internal standard which was 0.06 mM of an inert peptide marker.
(§3) In addition, half-lives were determined as described above using 3 μM recombinant human GST P1-1, A1-1 or M1a-1a starting with a concentration of the compound to be tested at 300 μM and monitoring disappearance using HPLC.

Data set [2] deals with recombinant human GST P1-1 (Homo sapiens, UniProt P09211). Nature of the data set: Decomposition of compound by GST P1-1 followed by HPLC. The class given is biochemical. The settings on record: for decomposition rate versus background, P1: 37°; for IN VITRO HALF LIVES, P1-1: 3 μM recombinant human GST P1-1, compound 300 μM, disappearance by HPLC. The method, then: as §1, §2, §3
recombinant human GST P1-1, sequence (P09211 2-210 limits assumed): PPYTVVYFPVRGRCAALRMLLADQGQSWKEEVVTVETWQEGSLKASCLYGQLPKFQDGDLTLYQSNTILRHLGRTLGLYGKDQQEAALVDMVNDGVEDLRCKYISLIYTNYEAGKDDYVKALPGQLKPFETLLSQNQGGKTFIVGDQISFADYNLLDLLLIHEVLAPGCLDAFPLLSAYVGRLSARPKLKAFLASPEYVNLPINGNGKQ

Data set [3] has as its target T2, recombinant human GST A1-1 (Homo sapiens, UniProt P08263).
T2 sequence (P08263 1-222): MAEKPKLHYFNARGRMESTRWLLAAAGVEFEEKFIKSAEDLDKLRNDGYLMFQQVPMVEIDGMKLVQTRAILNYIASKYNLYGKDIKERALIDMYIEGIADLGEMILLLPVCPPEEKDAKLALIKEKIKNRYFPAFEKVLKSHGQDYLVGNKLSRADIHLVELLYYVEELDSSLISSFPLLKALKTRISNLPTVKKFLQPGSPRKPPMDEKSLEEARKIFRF
Nature of the data set: Decomposition of compound by GST A1-1 followed by HPLC. Type of data set: biochemical. The settings on record: for decomposition rate versus background, A1: 37°; for IN VITRO HALF LIVES, A1-1: 3 μM recombinant human GST A1-1, compound 300 μM, disappearance by HPLC. Here is the method:
as §1, §2, §3

The test system of another data set is HT29 human cancer cells. The settings on record: preliminary results.
The conditions of data set [4]: no GST; compound 300 μM; disappearance by HPLC. Here is the method:
as §1, §2, §3

Data set [5] relates to human GST P1-1, A1-1, M1a-1a. The settings on record: from in vitro half lives with 3 μM GST, 300 μM compound. The method, then: as §3
For data set [6], the system named is MCF-7 cells transfected with GST P1-1. The settings on record: for sensitization of cells with high P1-1 levels compared to control-vector cells: 2 hours treatment, assayed on day 5, FIGS. 4a-4c.
The next data set concerns MX-1 tumor. The settings on record: single intraperitoneal injection, 300 mg/kg or 400 mg/kg, monitored one month; FIG. 5. The method, then: The prodrugs of the invention were tested in Balb/C nu/nv mice. The mice were implanted subcutaneously with MX-1 tumor pieces and then treated with a single intraperitoneal injection once tumors reached an average of 100 mm^3 (which is at approximately day 18 post-implant). Tumor growth and body weight were monitored for one month following treatment. […] In FIG. 5, the squares represent controls; circles represent 300 mg/kg of TER 286; triangles represent 400 mg/kg of the same drug. The points shown are the mean ±SEM of 5-7 mice per group.

For data set [7], the system named is GM-CFU in femoral bone marrow. Here is the method:
In the assay, B6D2F1 mice were treated with various doses of TER 286 intraperitoneally either as a single injection or as five daily injections. Femoral bone marrows were harvested 24 hours later and assayed for GM-CFU by the method of East, C. J. et al. Cancer Chemother Pharmacol (1992) 31:123-126.

Data set [8] relates to MCF-7 cells selected for cyclophosphamide resistance (MCF-CTX). The settings on record: standard clonogenic assay.
Description: Also tested were MCF-7 cells selected for cyclophosphamide resistance (MCF-CTX) and its wild-type counterpart.
The mark [9] stands for this setting: 0.3 mM TER 230, 0.006 mM GST, pH 7.3, 0.2M phosphate buffer, FIG. 1.
[10] abbreviates: 0.3 mM TER 231, GST 0,003 mM, pH 7.1, 0.2M phosphate buffer, FIG. 2.
[11] abbreviates: TER 286 similarly tested, FIG. 3.

These results are taken from patent US5556942A, “Glutathione S-transferase-activated compounds” (priority 1994, dated 1996).

For `CCN(CC)P(=O)(OCCS(=O)(=O)CC(NC(=O)CCC(N)C(=O)O)C(=O)NCC(=O)O)N(CC)CC` (stereo not drawn) [TER 230, γ-glutamyl-α-aminopropionyl (β-(2-ethyl-N,N,N,N,tetraethylphosphoramidate)sulfonyl)-glycine], the “decomposition rate versus background, M1a” value in [1] (setting [9]) was “about 4 times faster than background”. Moreover, in data set [2] (setting [9]), the “decomposition rate versus background, P1” value is listed as “about 2 times faster than background”. Also, the “decomposition rate versus background, A1” value in [3] (setting [9]) is given as “does not accelerate the decomposition of TER 230 above background”. In the data set with HT29 human cancer cells, the “toxicity to HT29 cells” value is “is not”.
For the molecule `NC(CCC(=O)NC(CS(=O)(=O)CCOP(=O)(N(CCCl)CCCl)N(CCCl)CCCl)C(=O)NCC(=O)O)C(=O)O` (stereo not drawn) [TER 231, γ-Glutamyl-α-Aminopropionyl (β-(2-ethyl-N,N,N,N-tetra(2'-chloro)ethylphosphoroamidate)sulfonyl)gl ycine], the “IN VITRO HALF LIVES, M1a-1a” value in [1] worked out at 25 min. For the same molecule, the “decomposition rate versus background, M1a” value in data set [1] (setting [10]) is recorded as “about 12 times faster than background”. For the same molecule, the “IN VITRO HALF LIVES, P1-1” value in [2] was found to be 110 min. Further, the “decomposition rate versus background, P1” value in data set [2] (setting [10]) is listed as 5 times faster than background. In addition, in data set [3], the “IN VITRO HALF LIVES, A1-1” value turned out to be 110 min. Also, the “decomposition rate versus background, A1” value in data set [3] (setting [10]) is reported as 5 times faster than background. Besides, in data set [4], the “IN VITRO HALF LIVES, CONTROL” value worked out at 350 min. In addition, the “Selectivity (GST isoenzyme that selectively cleaves the prodrug)” value (from here on “Selectivity”) in data set [5] is recorded as “by M1a-1a”. Also, the “toxicity to HT29 cells” value in the data set on HT29 human cancer cells is recorded as “toxic to these cells”. Further, the “sensitization of cells with high P1-1 levels compared to control-vector cells” value in data set [6] came out at 2 fold. In addition, the “sensitivity of π-transfected MCF-7 cells versus untransfected cells” value in [6] (π-transfect with elevated P1 GST) is listed as “more sensitive”.
Turning to `NC(CCC(=O)NC(CS(=O)(=O)CCOP(=O)(N(CCCl)CCCl)N(CCCl)CCCl)C(=O)N[C@@H](C(=O)O)c1ccccc1)C(=O)O` (stereo partly drawn) [TER 286, γ-glutamyl-α-Amino-β-((2-ethyl-N,N,N,N-tetra(2'-chloro) ethylphosphoroamidate)sulfonyl)propionyl-(R)-(-)phenylglycine], the “IN VITRO HALF LIVES, M1a-1a” value in data set [1] came out at 225 min. In [1] (setting [11]), the “acceleration of cleavage versus background, M1a-1a” value is listed as “negligible acceleration of cleavage”. Also, the “IN VITRO HALF LIVES, P1-1” value in data set [2] was 50 min. Further, in data set [2] (setting [11]), the “acceleration of cleavage versus background, P1-1” value is “roughly six”. Besides, the “IN VITRO HALF LIVES, A1-1” value in [3] worked out at 65 min. Besides, the “acceleration of cleavage versus background, A1-1” value in data set [3] (setting [11]) is on record as “roughly six”. For the same molecule, the “IN VITRO HALF LIVES, CONTROL” value in [4] came to 275 min. Besides, the “Selectivity” value in data set [5] is “selectively cleaved by P1-1 and A1-1”. In the data set on MX-1 tumor, the “tumor volume in treated mice compared to controls” value is given as “greatly diminished”. Moreover, in [7] (mouse, in vivo), the “GM-CFU, % of controls” value was “up to 180%” and the “optimum dosage range for bone marrow GM-CFU” value fell in the range of 100 to 200 mg/kg. In addition, in [6], the “sensitization of cells with high P1-1 levels compared to control-vector cells” value worked out at 4 fold. The “factor by which CTX-resistant cells are more sensitive than CTX-sensitive cells” value in data set [8] was found to be 1.8.
Take `N[C@@H](Cc1ccc(N(CCCl)CCCl)cc1)C(=O)O` [melphalan, reference compound]: the “toxicity with respect to bone marrow (GM-CFU)” value in [7] (FIG. 7) was “extreme toxicity”.
For the molecule “γ-glutamyl-α-Amino-β-(1-phenyl, (2'ethyl-N,N,N,N-tetra(2'-chloro)ethylphosphoroamidate)sulfonyl) propionyl glycine [TER 296]”, the “IN VITRO HALF LIVES, M1a-1a” value in data set [1] stood at 50 min. For the same molecule, the “IN VITRO HALF LIVES, P1-1” value in data set [2] stood at 2.5 min. Also, the “IN VITRO HALF LIVES, A1-1” value in data set [3] is 200 min. For the same molecule, the “Selectivity” value in [5] is listed as “selectively cleaved by P1-1”.
For the molecule “γ-glutamyl-α-Amino-β-((2-ethyl-N,N,N,N-tetra(2'-chloro)eth ylphosphoroamidate)sulfonyl)propionylphenylalanine [TER 303]”, in [1], the “IN VITRO HALF LIVES, M1a-1a” value was 200 min. Further, in data set [2], the “IN VITRO HALF LIVES, P1-1” value was 310 min. Besides, the “IN VITRO HALF LIVES, A1-1” value in data set [3] worked out at 45 min. Besides, the “Selectivity” value in data set [5] is “selectively cleaved by A1-1”.
